As a reminder, the inhibition is the change of the read-out against control, counted positive when it falls. By ΔTm is commonly meant the shift of the melting midpoint relative to a reference.

The structures appear in SMILES notation.

Data set [1] has as its target KV channel (voltage-gated potassium channel family) (Homo sapiens, UniProt O43525+O43526+O95259+P16389+P17658+P22001+P22459+P22460+P48547+P51787+P56696+Q03721+Q09470+Q12809+Q14003+Q14721+Q16322+Q6PIU1+Q8NCM2+Q8TAE7+Q8TDN1+Q8TDN2+Q92953+Q96KK3+Q96L42+Q96PR1+Q96RP8+Q9BQ31+Q9H252+Q9H3M0+Q9NR82+Q9NS40+Q9NSA2+Q9NZV8+Q9UIX4+Q9UJ96+Q9UK17+Q9ULD8+Q9ULS6+Q9UQ05). In words: Inhibition of KV channel (unknown origin) at 10 uM relative to control. The data set is classed as protein assay.

The target of data set [2] is Bromodomain-containing protein 9 (Homo sapiens) (UniProt Q9H8M2). The note with it: dose 10.0 µM.
Sequence of Bromodomain-containing protein 9 (Homo sapiens) (Q9H8M2 whole entry): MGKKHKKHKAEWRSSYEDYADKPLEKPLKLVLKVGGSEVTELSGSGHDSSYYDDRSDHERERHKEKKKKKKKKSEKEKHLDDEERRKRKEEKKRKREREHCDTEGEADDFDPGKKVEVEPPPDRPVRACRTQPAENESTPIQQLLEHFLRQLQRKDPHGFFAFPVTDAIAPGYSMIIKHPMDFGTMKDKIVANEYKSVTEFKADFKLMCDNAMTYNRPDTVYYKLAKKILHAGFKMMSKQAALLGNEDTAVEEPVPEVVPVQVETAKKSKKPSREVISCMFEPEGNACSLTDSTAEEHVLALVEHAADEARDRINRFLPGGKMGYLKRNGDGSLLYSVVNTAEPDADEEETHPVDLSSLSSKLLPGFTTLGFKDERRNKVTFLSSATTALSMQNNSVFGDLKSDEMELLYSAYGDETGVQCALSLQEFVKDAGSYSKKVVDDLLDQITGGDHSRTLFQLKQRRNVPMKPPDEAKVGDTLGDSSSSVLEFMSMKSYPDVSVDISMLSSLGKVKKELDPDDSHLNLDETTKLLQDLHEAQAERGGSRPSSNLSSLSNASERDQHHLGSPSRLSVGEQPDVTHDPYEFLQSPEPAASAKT
The target in data set [3] is Bromodomain-containing protein 4 (Homo sapiens) (UniProt O60885). Put plainly: Binding affinity to BRD4 BD1 (unknown origin) assessed as change in enthalpy at 14 uM by Isothermal titration calorimetry.
Data set [4] is filed under the species Homo sapiens. The note with it: dose 10.0 µM.
For data set [5], the target named is T1, Peregrin (Homo sapiens) (UniProt P55201).
T1 sequence (whole entry): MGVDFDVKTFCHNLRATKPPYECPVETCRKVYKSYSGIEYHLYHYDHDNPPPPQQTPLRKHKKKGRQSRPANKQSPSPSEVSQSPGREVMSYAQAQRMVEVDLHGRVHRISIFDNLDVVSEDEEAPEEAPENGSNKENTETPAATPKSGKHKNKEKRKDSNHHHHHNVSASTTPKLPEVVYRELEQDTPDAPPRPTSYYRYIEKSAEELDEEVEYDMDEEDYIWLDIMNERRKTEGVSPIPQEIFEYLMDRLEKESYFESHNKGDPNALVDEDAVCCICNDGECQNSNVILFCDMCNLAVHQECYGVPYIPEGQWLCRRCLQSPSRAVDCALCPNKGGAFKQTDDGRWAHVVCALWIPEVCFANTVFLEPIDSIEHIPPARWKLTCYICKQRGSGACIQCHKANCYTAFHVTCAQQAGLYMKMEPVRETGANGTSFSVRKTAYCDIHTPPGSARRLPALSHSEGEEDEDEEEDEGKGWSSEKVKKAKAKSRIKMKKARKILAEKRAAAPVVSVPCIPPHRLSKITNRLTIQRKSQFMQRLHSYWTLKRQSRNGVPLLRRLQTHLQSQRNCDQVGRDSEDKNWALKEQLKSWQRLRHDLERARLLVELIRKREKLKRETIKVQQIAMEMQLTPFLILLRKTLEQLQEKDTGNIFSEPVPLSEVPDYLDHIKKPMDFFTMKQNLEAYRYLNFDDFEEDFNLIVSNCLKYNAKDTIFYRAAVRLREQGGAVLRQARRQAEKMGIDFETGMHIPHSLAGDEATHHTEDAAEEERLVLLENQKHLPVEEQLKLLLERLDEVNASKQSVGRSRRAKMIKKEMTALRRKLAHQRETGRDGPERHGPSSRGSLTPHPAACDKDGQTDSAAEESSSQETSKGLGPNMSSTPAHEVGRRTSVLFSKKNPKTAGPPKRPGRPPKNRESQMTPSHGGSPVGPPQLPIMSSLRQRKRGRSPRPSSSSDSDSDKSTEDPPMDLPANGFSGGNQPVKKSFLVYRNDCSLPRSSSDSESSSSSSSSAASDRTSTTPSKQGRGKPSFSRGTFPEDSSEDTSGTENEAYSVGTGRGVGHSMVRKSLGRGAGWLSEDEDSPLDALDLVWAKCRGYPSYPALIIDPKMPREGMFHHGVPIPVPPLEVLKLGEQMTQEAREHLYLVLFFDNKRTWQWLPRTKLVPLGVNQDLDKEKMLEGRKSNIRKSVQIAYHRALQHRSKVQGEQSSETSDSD
The note with it: dose 10.0 µM.

In data set [6] the target is T2, Bromodomain and PHD finger-containing protein 3 (Homo sapiens) (UniProt Q9ULD4).
T2 sequence (whole entry): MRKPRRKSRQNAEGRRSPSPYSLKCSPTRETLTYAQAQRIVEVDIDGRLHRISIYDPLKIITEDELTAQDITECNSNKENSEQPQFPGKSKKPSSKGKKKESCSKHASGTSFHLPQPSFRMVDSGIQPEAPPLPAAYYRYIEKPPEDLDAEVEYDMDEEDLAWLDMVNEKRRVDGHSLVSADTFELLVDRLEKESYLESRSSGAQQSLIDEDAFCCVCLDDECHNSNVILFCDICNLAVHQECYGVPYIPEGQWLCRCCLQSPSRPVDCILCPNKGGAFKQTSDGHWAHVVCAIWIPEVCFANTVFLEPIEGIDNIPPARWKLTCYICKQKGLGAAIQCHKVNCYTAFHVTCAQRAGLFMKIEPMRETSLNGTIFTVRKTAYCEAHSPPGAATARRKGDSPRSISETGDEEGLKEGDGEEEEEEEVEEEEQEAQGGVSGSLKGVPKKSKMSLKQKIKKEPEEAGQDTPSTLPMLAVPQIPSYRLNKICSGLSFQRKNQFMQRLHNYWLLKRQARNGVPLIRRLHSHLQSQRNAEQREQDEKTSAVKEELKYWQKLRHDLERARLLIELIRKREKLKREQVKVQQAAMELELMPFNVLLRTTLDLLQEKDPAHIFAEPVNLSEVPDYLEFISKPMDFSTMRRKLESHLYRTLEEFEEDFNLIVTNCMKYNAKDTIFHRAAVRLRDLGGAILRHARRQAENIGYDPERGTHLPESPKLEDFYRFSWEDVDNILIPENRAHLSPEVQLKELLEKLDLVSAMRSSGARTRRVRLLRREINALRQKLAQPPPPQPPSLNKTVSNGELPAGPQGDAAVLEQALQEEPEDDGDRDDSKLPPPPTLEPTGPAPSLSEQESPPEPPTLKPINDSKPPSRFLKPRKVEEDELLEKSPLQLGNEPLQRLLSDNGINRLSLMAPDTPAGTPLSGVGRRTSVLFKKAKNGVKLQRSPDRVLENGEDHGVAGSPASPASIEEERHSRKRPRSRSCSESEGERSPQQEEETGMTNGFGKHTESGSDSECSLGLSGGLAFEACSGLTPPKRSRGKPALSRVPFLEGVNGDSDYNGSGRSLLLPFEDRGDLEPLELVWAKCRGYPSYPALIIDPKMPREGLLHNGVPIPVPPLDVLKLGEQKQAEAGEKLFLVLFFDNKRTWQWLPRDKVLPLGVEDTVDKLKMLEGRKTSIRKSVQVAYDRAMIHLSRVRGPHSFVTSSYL
In words: Binding affinity to BRPF3 (unknown origin) assessed as change in enthalpy at 12 uM by Isothermal titration calorimetry.

Consider `COc1cc2c(cc1NS(=O)(=O)c1ccc(Br)cc1C)n(C)c(=O)n2C`, for which, in data set [1], the inhibition at 10 µM was -18%. The ΔTm in data set [2] worked out at 1 °C; in data set [4], 0.2 °C; in data set [5], 6.5 °C. Further, the deltaH in data set [3] was -6.93 kcal/mol; in data set [6], -7.37 kcal/mol.

The values are drawn from ChEMBL document CHEMBL5715956, “Selective Targeting of Bromodomains of the Bromodomain-PHD Fingers Family Impairs Osteoclast Differentiation” (ACS Chem Biol, 2017).
